Peptide text beside a SMILES is read from it.
What was measured:
[1] = test system: Erwinia amylovora PMV6076; experiment: Antibacterial activity (MIC), in vitro growth inhibition; type: cell-based; conditions: Table S1, MIC range
Summary of the method: (§1)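 MIC determined by in vitro growth inhibition across 0.8, 1.6, 3.1, 6.2, 12.5, 25 and 50 μM peptide. Strains tested: E. amylovora PMV6076, P. syringae pv. syringae EPS94 and X. axonopodis pv. vesicatoria 2133-2.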

[2] = test system: Pseudomonas syringae pv. syringae EPS94; experiment: as above; type: cell-based; conditions: Table S1, MIC range
Summary of the method: as §1

[3] = test system: Xanthomonas axonopodis pv. vesicatoria 2133-2; type: cell-based; conditions: Table S1, MIC range
Summary of the method: as §1

[4] = test system: erythrocyte suspensions of human blood; experiment: Hemolytic activity, hemoglobin release; type: cell-based; conditions: human blood erythrocytes 5% v/v, absorbance 540 nm, percentage compared to melittin, three replicates
Procedure: The hemolytic activity of the compounds was evaluated at 50 and 125 μM by determining hemoglobin release from erythrocyte suspensions of human blood (5% v/v) (Oxoid) using absorbance at 540 nm, as previously described. Three replicates for each peptide concentration were used.

[5] = test system: Pseudomonas syringae pv. syringae, Xanthomonas axonopodis pv. vesicatoria, and Erwinia amylovora; conditions: cited from earlier work
Excerpt: Combinatorial chemistry constitutes a powerful tool to obtain peptides with improved biological activity against plant pathogens. In particular, we have employed this methodology to design and synthesize a library of cyclic decapeptides with general structure c(X5-Phe-X3-Gln) where X is Lys or Leu. Analysis of internal structural features together with a design of experiments (DOE) allowed establishing the sequence pattern for an optimal biological activity, i.e., c(X^1X^2X^3X^4LysPheLysLysLeuGln) where X^2 ≠ X^3 and X^4 = Lys. […] Cyclic peptides are preferred candidates due to their high conformational rigidity and proteolytic stability. In a previous work, a library of 66 Phe-containing cyclic decapeptides was synthesized from which sequences with high activity against E. amylovora, P. syringae pv. syringae, and X. axonopodis pv. vesicatoria were identified, highlighting c(LysLysLeuLysLysPheLysLysLeuGln) ... || The results obtained support the notion that subtle changes in a peptide sequence may lead to a significant modification of its biological activity. Thus, for example, the Phe→Trp substitution in the lead peptides c(LysLysLeuLysLysPheLysLysLeuGln) (BPC194) and c(LysLeuLysLysLysPheLysLysLeuGln) (BPC198) caused a reduction of the activity. […]

CC(C)C[C@@H]1NC(=O)[C@H](CCCCN)NC(=O)[C@H](CCCCN)NC(=O)[C@H](Cc2c[nH]c3ccccc23)NC(=O)[C@H](CCCCN)NC(=O)[C@H](CCCCN)NC(=O)[C@H](CCCCN)NC(=O)[C@H](CC(C)C)NC(=O)[C@H](CCCCN)NC(=O)[C@H](CCC(N)=O)NC1=O [BPC198W, c(KLKKKWKKLQ)] (cyclo(KKKWKKLQKL))
MIC Ea [1]: 25 to 50 µM
MIC Pss [2]: 25 to 50 µM
MIC Xav [3]: 3.1 to 6.2 µM
Hemolysis (%) at 50 µM ([4]; peptide 50 μM (table prints 50 µM)): 2%
Hemolysis (%) at 125 µM ([4]; peptide 125 μM (table prints 125 µM)): 4%

cyclo(LKKKKFLLKQ) [BPC108]
antibacterial activity in words, Phe peptides [5]: poorly active

cyclo(LKKKLFKKLQ) [BPC086]
antibacterial activity in words, Phe peptides [5]: poorly active

Reference: paper PMC6150173, “Tryptophan-Containing Cyclic Decapeptides with Activity against Plant Pathogenic Bacteria” (Molecules : A Journal of Synthetic Chemistry and Natural …, 2017)
